Publication PMC3403872, “Contrasting effects of linaclotide and lubiprostone on restitution of epithelial cell barrier properties and cellular homeostasis after exposure to cell stressors” (BMC Pharmacology, 2012)
Where no end group is shown, it is not given here.

Tests used:
T84 cells [1] = tested on: T84 cells
T84 cells [2] = type: cell-based
T84 cells [3] = type: cell-based; remark: listed apart in the source
T84 cells [4] = test: FITC-LPS flux across T84 cells; type: cell-based; settings: IFN-γ 100 ng/ml
T84 cells [5] = test: 70,000 Da rhodamine-dextran flux across T84 cells; type: cell-based; settings: 200 nM active linaclotide, 200 nM guanylin, 100 nM lubiprostone, 3 days, then dextran 24 h, n = 3
pig jejunum [6] = test: mucosal-to-serosal 3H-mannitol flux in pig jejunal mucosa; set-up: species or system Yorkshire crossbred pigs; settings: n = 3
porcine intestine = tested on: porcine intestine; set-up: method as in PMID 17053162, PMID 18976652, PMID 18932279; settings: porcine intestine models; ref [22]-[24]; cited from earlier work
T84 cells [7] = test: mitochondrial membrane potential of T84 cells (JC-1); type: cell-based
T84 cells [8] = test: 3,000 Da FITC-dextran flux across T84 cells; type: cell-based; settings: 200 nM active linaclotide, 200 nM guanylin, 100 nM lubiprostone, 3 days, then dextran 24 h, n = 3
occludin = test: Western analysis of occludin in sucrose density gradient membrane fractions; set-up: species or system Yorkshire crossbred pigs; settings: ischemic pig jejunum, n = 3 experiments
[9] = tested on: patients with IBS-C and CIC; settings: human, in vivo; cited from earlier work
T84 cells [10] = test: plasma membrane potential of T84 cells (DiBAC4(3)); type: cell-based; settings: different concentrations, p wrt 1 nM drug, n = 5
pig jejunum [11] = test: short-circuit current (Cl− secretion) of pig jejunal mucosa in Ussing chambers; set-up: species or system Yorkshire crossbred pigs; settings: 1 μM, n = 4
ClC-2 Cl- channels = tested on: ClC-2 Cl- channels; set-up: method as in PMID 15213059, PMID 18511742; settings: apical membrane of epithelial cells; ref [17],[18]; cited from earlier work
pig jejunum [12] = test: TER of pig jejunal mucosa in Ussing chambers; set-up: species or system Yorkshire crossbred pigs
[13] = set-up: method as in PMID 16603730; settings: ref [19],[20]; cited from earlier work
patients with IBS-C = settings: ref [21]; cited from earlier work
[14] = tested on: guanylate cyclase-C (GC-C); settings: cited from earlier work
K+ channels = settings: cited from earlier work
rodent animal models = settings: in vivo; cited from earlier work

With Nc1nc2c(nc(Br)n2[C@@H]2O[C@@H]3COP(=O)(O)O[C@H]3[C@H]2O)c(=O)[nH]1 [8BrcGMP, 8-bromo cGMP] the “effect on T84 TER, no stressor” value (T84 cells [1]) was “reduced T84 epithelial cell TER significantly” and the “effects against IFN-γ” value (T84 cells [1]) was “effects similar to active linaclotide”.

For CCCCC[C@H](O)/C=C/[C@H]1[C@H](O)CC(=O)[C@@H]1CCCCCCC(=O)O [PGE1, Prostaglandin E1], the “effect on [Ca2+]i” value (T84 cells [2]) was “significantly increased”.

In the case of CCCCC(F)(F)[C@@]1(O)CC[C@H]2[C@@H](CC(=O)[C@@H]2CCCCCCC(=O)O)O1 [lubiprostone], the “IFN-γ-counteracting effect on occludin/actin ratio” value (T84 cells [3]) is reported as roughly 43.8%, the “IFN-γ-counteracting effect on FITC-LPS flux” value (T84 cells [4]; 200 nM active linaclotide or 100 nM lubiprostone, 3 days, then LPS 24 h, n = 3) is reported as roughly 89% and the “effect on mucosal to serosal 70,000 Da rhodamine-dextran flux” value (T84 cells [5]) is reported as “decreases of these fluxes”. For the same molecule, the “effect on 3H-mannitol flux, control intestine” value (pig jejunum [6]; control pig jejunum, 60 min flux period) was “neither compound had any effect”, the “effect on 3H-mannitol flux after ischemia” value (pig jejunum [6]; ischemic pig jejunum (45 min ischemia)) was “decrease in ^3H-mannitol fluxes” and the “barrier repair after ischemia” value (porcine intestine) was “promotes repair of barrier properties which are disrupted by ischemia”. The “effect on T84 TER, no stressor” value (T84 cells [1]) was “slight increase in TER”, the “effect of compound alone on measured T84 parameters” value (T84 cells [1]; T84 cells, no stressor, barrier function and mitochondrial membrane potential parameters together) was “no negative effects on the measured parameters” and the “IFN-γ-counteracting effect on TER” value (T84 cells [1]; T84 cells, IFN-γ 100 ng/ml, 200 nM active linaclotide or 100 nM lubiprostone, n = 3, Δlin vs Δlubi p < 0.0005) was “ca. 27.3%”. The “effect on TNF-α-induced TER change” value (T84 cells [1]; T84 cells, TNF-α 50 ng/ml, 200 nM active linaclotide or 100 nM lubiprostone) was “partially protected/repaired barrier function”, the “effect on mitochondrial membrane potential, no stressor” value (T84 cells [7]; 200 nM active linaclotide, 100 nM lubiprostone, 3 days) was “no effect on the mitochondrial membrane potential” and the “IFN-γ-counteracting effect on mitochondrial membrane potential” value (T84 cells [7]; IFN-γ 100 ng/ml, 200 nM active linaclotide or 100 nM lubiprostone, 3 days, n = 8) was roughly 77.8%. The “effect on mucosal to serosal 3,000 Da FITC-dextran flux” value (T84 cells [8]) was “decreases of these fluxes”, the “effect on occludin after ischemia” value (occludin) was “major return of occludin to detergent-insoluble fractions” and the “clinical effect on abdominal discomfort and pain” value [9] was “ameliorates abdominal discomfort and pain”. For the same molecule, the “clinical efficacy of lubiprostone (symptoms)” value [9] was “significantly improving symptoms associated with CIC and IBS-C”, the “effect on plasma membrane potential” value (T84 cells [10]) was “significantly hyperpolarized” and the “effect on Isc, control intestine” value (pig jejunum [11]) was “significant and similar increases in Isc”. For the same molecule, the ClC-2 activation (ClC-2 Cl- channels) was “activates ClC-2 Cl^- channels”, the “ΔTER, control intestine” value (pig jejunum [12]; control pig jejunum, 1000 nM (1 μM), control ΔTER 2.1±1.8, n = 5, p < 0.01, mean ± S.E.) was 26.3 ± 6.2 % mean basal and the “effect on TER after ischemia” value (pig jejunum [12]; ischemic pig jejunum (45 min ischemia), n = 5) was “large, significant increase in TER”. For the same molecule, the “intestinal secretion and bowel movements” value [13] was “increasing intestinal salt and water secretion, promoting bowel movements” and the “effect on visceral pain thresholds” value (patients with IBS-C) was “without influencing visceral pain thresholds”.

In the case of CCC(=O)C(CC(C)N(C)C)(c1ccccc1)c1ccccc1 (stereo not shown) [methadone], the “effect of methadone on linaclotide's effect on TER after TNF-α” value (T84 cells [1]) is reported as “no effect” and the “effect of methadone on lubiprostone's protection/repair of TER after TNF-α” value (T84 cells [1]) is reported as “inhibited completely”.

In the case of “guanylin: well established GC-C activator, Sigma-Aldrich (PGTCEICAYAACTGC; ends and bridges not checked; cysteine pairing not given here; UniProt Q02747 101-115, looked up)”, the GC-C activation [14] is listed as “activates guanylate cyclase-C (GC-C) leading to increased [cGMP]i”, the “effect on mucosal to serosal 70,000 Da rhodamine-dextran flux” value (T84 cells [5]) is listed as “increased mucosal to serosal fluxes” and the “K+ channel activation” value (K+ channels) is listed as “activate K^+ channels”. The “effect on T84 TER, no stressor” value (T84 cells [1]) was “reduced T84 epithelial cell TER significantly”, the “effects against IFN-γ” value (T84 cells [1]) was “effects similar to active linaclotide” and the “effect on mucosal to serosal 3,000 Da FITC-dextran flux” value (T84 cells [8]) was “increased mucosal to serosal fluxes”.

In the case of linaclotide, the GC-C activation [14] is given as “activates guanylate cyclase-C (GC-C) leading to increased [cGMP]i”, the “intestinal fluid secretion, transit and pain” value (rodent animal models) is given as “stimulated intestinal fluid secretion and transit time and reduced pain” and the “clinical efficacy of linaclotide” value [9] is given as “improve bowel symptoms, transit time and abdominal discomfort or pain”.

In the case of “uroguanylin: activates guanylate cyclase-C (NDDCELCVNVACTGCL; ends and bridges not checked; cysteine pairing not given here; UniProt Q16661 97-112, looked up)”, the GC-C activation [14] is given as “activates guanylate cyclase-C (GC-C) leading to increased [cGMP]i” and the “K+ channel activation” value (K+ channels) is given as “activate K^+ channels”.

B1: Interferon-γ (protein, UniProt P01579 24-161, looked up)
Interferon gamma: QDPYVKEAENLKKYFNAGHSDVADNGTLFLGILKNWKEESDRKIMQSQIVSFYFKLFKNFKDDQSIQKSVETIKEDMNVKFFNSNKKKRDDFEKLTNYSVTDLNVQRKAIHELIQVMAELSPAAKTGKRKRSQMLFRG
For B1, the “stressor effect on occludin/actin ratio” value (T84 cells [3]; T84 cells, IFN-γ 100 ng/ml, p < 0.0005) was “decreased the occludin/actin ratio”, the “stressor effect on mucosal to serosal FITC-LPS flux” value (T84 cells [4]; p < 0.0005) was “increased mucosal to serosal FITC-LPS flux” and the “stressor effect on TER” value (T84 cells [1]) was “significantly reduced TER”. For the same molecule, the “stressor effect on mitochondrial membrane potential” value (T84 cells [7]; IFN-γ 100 ng/ml, p < 0.0005) was “decreased the mitochondrial membrane potential”.
